{
  "source": "patent US20120083772A1",
  "about": "“CORNEAL TREATMENT SYSTEM AND METHOD” (CURVERIGHT LLC, priority 2010, published 2012)",
  "origin": "cited, not measured here",
  "tested_on": "living cells",
  "data": [
    {"smiles": "OO", "note": "[hydrogen peroxide]", "values": [
      {"measurement": "concentration that can stop the proliferation of living cells", "result": 1000, "unit": "nM"}
    ]}
  ]
}
